Data set [1] in a line: Octanol/pH 7.4 buffer partition coefficient, shake flask. The following applies: pH 7.4. Summed up: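 Both phases were measured by LC-MS, the aqueous phase after re-centrifugation, and the partition coefficient was taken as the octanol-to-buffer concentration ratio over two sampling times. Equal volumes of octanol, holding compound at two dilutions of a 3-30 mg/mL stock, and pH 7.4 phosphate/NaCl buffer were mixed at 37 °C.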

A short description of data set [2]: Solubility limited absorbable dose (SLAD) calculation with predicted human jejunal Peff. As to conditions: for An (absorption number): Peff × tres/R, minimum 1; for SLAD: Ssi × V (500 mL) × Mp; for Permeability classification: based on ref 80 and control compounds; for Predicted human Peff: from Caco-2 Papp via calibration plot. From the text:
Predicted Peff values were obtained from a calibration plot of literature Peff values vs measured Caco-2 Papp using either buffer or plasma as the transport medium (see Results section).

A further data set concerns the target T1, CYP1A2 (Homo sapiens, UniProt P05177).
T1 sequence (P05177 1-516): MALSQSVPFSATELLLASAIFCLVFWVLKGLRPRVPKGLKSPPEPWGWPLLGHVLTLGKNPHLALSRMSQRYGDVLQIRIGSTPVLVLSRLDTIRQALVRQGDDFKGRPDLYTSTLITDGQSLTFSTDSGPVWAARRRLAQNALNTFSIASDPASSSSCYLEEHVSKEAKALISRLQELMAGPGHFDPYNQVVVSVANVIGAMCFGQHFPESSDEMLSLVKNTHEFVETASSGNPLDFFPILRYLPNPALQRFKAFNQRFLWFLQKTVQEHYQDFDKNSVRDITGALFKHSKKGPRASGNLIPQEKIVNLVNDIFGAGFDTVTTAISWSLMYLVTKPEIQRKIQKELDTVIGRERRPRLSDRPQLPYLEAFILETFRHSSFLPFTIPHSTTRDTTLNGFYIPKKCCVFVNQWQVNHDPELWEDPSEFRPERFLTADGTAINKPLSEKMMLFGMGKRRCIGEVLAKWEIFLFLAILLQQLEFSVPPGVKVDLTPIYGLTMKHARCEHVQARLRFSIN
The data set can be described thus: Cytochrome P450 inhibition in human liver microsomes. Summed up: (§1)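 Substrate-specific interaction method in human liver microsomes: the test compound's effect on production of a single isoform-dependent metabolite, quantified by LC–MS using diazepam as internal standard, is reported as percent inhibition of enzyme activity. Substrate Km was determined under the same incubation conditions.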
(Liver microsomes are vesicles of endoplasmic reticulum, rich in cytochrome P450 enzymes.)

For another data set, the target named is CYP2D6 (Homo sapiens, UniProt P10635). The description is as above. Summed up:
as §1

A short description of data set [3]: In vitro metabolism (metabolic stability) in human liver microsomes. As to conditions: human, liver microsomes, pH 7.4, HLM CLint, human liver microsomes; average of n = 2 replicates; < 7 means < 15% loss over 60 min. A digest of the protocol:
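Intrinsic clearance (µL/min/mg protein) came from the first-order substrate-depletion rate in human liver microsomes, using only the initial log-linear phase where kinetics deviated. Samples were quenched at 2, 5, 15, 30 and 60 min and quantified by LC–MS. Unbound CLint was obtained by dividing by microsomal fu.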

Data set [4] is described as follows: Plasma protein binding via ultracentrifugation (UC). As to conditions: pH 7.4. The class given is in vitro ADME, human. A digest of the protocol:
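Unbound fraction from ultracentrifugation of spiked pooled donor plasma, supernate pH checked and sampled for Cunbound. Ctotal and degradation taken from 37 °C control tubes at start and end; all samples mixed 1:1 with blank plasma or pH 7.4 buffer before analysis on shared calibration.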

Data set [5] deals with T2, Albumax medium (lipid rich bovine serum albumin) (Bos taurus, UniProt P02769).
T2 construct: purchased Gibco, Thermo Fisher Scientific
T2 sequence (P02769 25-607): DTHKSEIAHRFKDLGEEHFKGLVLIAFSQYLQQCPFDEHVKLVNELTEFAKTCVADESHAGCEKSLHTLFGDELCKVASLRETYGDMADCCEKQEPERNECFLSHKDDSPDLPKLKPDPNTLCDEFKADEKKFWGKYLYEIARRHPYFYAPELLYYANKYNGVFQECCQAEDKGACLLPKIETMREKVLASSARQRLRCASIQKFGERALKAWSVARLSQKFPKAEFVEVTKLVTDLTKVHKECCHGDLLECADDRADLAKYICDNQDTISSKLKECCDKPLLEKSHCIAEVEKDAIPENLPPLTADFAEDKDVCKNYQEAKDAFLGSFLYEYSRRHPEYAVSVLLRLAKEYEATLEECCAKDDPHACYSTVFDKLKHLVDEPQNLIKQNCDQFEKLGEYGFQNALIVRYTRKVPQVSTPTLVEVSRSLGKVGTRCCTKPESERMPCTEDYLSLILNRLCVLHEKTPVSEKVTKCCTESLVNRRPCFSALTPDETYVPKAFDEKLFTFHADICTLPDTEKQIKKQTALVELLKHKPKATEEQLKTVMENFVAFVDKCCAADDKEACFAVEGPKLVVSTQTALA
Description: Binding in Albumax medium via ultracentrifugation. The class given is in vitro ADME. The following applies: bovine, isolated protein. Summed up: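 Unbound fraction (fu) taken as protein-free supernate concentration over total concentration after ultracentrifuging compound-spiked Albumax at 37 °C (5% or 10% CO2, or air). Analysis used 1:1 mixing with the opposite blank matrix against a common pH 7.4 calibration; degradation judged by start versus end Ctotal.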

The source of these data is paper PMC6941357, “An in vitro toolbox to accelerate anti-malarial drug discovery and development” (Malaria Journal, 2020).

Values after ≈ are worked out from the molar mass of the structure shown. Read-outs that look alike come from different tables or passages of the source.

Chain of CYP2D6 (P10635 whole entry): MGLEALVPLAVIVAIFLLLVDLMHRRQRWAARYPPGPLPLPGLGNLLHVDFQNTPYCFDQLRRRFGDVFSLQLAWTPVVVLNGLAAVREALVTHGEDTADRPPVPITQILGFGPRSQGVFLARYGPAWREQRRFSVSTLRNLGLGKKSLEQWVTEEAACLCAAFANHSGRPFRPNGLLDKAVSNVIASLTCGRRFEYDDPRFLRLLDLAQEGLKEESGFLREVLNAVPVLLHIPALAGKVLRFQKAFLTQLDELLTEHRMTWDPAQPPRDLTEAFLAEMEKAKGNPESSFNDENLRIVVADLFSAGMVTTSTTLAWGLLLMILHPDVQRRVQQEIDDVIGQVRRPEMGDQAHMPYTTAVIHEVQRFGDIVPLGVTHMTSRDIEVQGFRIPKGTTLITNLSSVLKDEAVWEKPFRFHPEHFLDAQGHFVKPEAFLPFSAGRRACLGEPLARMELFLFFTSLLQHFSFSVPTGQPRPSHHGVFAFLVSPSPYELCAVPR

The logD is the decadic logarithm of the distribution of all forms, ionised or not, between an organic phase and buffer at a given pH. What is called solubility is the dissolved amount per volume that the medium holds. In general, IC50 refers to the concentration that inhibits the measured activity by half. As a reminder, the Ki is a measure of affinity in units of concentration, obtained from inhibition or displacement. The term microsomal CLint denotes a measure of how fast metabolising enzymes remove a compound, apart from limits set by blood flow. `CC(C)NC(=N)NC(=N)Nc1ccc(Cl)c(Cl)c1` [Chlorproguanil] returned a logD in data set [1] (octanol/pH 7.4 buffer) of 1.1. The solubility in data set [2] (FaSSIF) is 1100 µg/mL (≈ 3.82 mM). Further, in data set [2], the “An (absorption number)” value is given as 1.8, the SLAD is reported as 998 mg, the Permeability classification result is given as “High (> 85% absorption (high))” and the “Predicted human Peff” value is 1.5 10^−4 cm/s. The IC50 against CYP1A2 was > 20 µM. Further, the “CYP1A2 % inhibition at max conc” value at CYP1A2 (microsomes) was “nmi”. Besides, on CYP2D6, inhibition was half-maximal at 1.4 µM (IC50) and the inhibition constant (Ki) turned out to be 0.87 µM. In addition, the microsomal CLint at 1 µM in data set [3] is < 7 µL/min/mg. Also, in data set [4] (human, neat pooled plasma, ultracentrifugation, neat plasma, read-out: Fraction unbound, human plasma), the fraction unbound at […] stood at 0.1 ± 0.007. This molecule also registered a fraction unbound at […], 500 ng/mL in data set [5] (pH 7.4) of 0.5 ± 0.02.
Consider `C[C@H]1[C@@H](O)O[C@@H]2O[C@@]3(C)CC[C@H]4[C@H](C)CC[C@@H]1[C@@]24OO3` [Dihydroartemisinin], for which, in data set [1] (octanol/pH 7.4 buffer), the log distribution coefficient (logD) came out at 2.3. This molecule also returned a logD in data set [1] (octanol/pH 7.4 phosphate buffered saline) of 2.3. In addition, in data set [2], the “An (absorption number)” value was 5.2, the SLAD is reported as 413 mg, the Permeability classification entry is reported as “High (> 85% absorption (high))” and the “Predicted human Peff” value is reported as 4.4 10^−4 cm/s. Moreover, at CYP1A2, the IC50 came out at 11 µM and the inhibition constant Ki is 6.2 µM. Also, the half-maximal inhibitory concentration (IC50) at CYP2D6 was > 20 µM. Moreover, at CYP2D6 (microsomes), the “CYP2D6 % inhibition at max conc” value is reported as “nmi”. Besides, the intrinsic clearance (microsomal CLint) at 1 µM in data set [3] was found to be 16.6 µL/min/mg. Moreover, in data set [4] (human, pooled plasma, ultracentrifugation, instability evident, estimate only, read-out: Fraction unbound, human plasma), the fraction unbound at […] was 0.21 ± 0.01. Besides, in data set [4] (human plasma, fraction unbound, read-out: Plasma fu), the fraction unbound at […] came to 0.21. For the same molecule, the fraction unbound at […], 500 ng/mL in data set [5] (pH 7.4, instability evident, estimate only) was 0.34 ± 0.018.
